Measured values reported in patent US9358249B2, “Use of Pateamine A for the treatment of age-related muscle wasting” (The Regents of the University of California, priority 2008, dated 2016).

Tests used:
[1] = test system: cap-dependent (eIF4A-requiring) translation of renilla luciferase; assay: Bicistronic dual-luciferase reporter pcDNA/Ren/HCV/FF in HEK 293 cells, Renilla luciferase; type: cell-based; settings: 0-100 μM, 33 hour after transfection
Procedure: (§1) FIG. 3A: Schematic diagram of the bicistronic dual-luciferase mRNA Ren-HCV-FF. FIG. 3B: Resveratrol inhibits cap-dependent translation initiation of Renilla luciferase but not eIF4A-independent translation of firefly luciferase. HEK 293 cells transfected with plasmid pcDNA/REN/HCV/FF are treated with different concentration of resveratrol (0, 0.1, 1, 10, 50, 100 μM). Translation of reporter genes was measured 33 hour after transfection using the Dual-Glo luciferase assay (Promega) with an Analyst HT plate reader (Molecular Devices).
(§2) One such illustrative assay is shown in Example 1.

[2] = biological target: T1, eukaryotic initiation factor 4A (eIF4A), yeast (TAP tagged Tif1) (Saccharomyces cerevisiae, UniProt P10081); assay: Proteolysis protection of yeast cell lysate proteins by resveratrol (silver staining, mass spectrometry, western blotting); type: binding
T1 construct: We performed proteolysis on yeast cell lysates that had been incubated with resveratrol or ethanol; TAP; endogenous in cells; host or cells: yeast cells (lysate); strain expressing TAP-tagged Tif1 for the western blot
T1 sequence (P10081 1-395): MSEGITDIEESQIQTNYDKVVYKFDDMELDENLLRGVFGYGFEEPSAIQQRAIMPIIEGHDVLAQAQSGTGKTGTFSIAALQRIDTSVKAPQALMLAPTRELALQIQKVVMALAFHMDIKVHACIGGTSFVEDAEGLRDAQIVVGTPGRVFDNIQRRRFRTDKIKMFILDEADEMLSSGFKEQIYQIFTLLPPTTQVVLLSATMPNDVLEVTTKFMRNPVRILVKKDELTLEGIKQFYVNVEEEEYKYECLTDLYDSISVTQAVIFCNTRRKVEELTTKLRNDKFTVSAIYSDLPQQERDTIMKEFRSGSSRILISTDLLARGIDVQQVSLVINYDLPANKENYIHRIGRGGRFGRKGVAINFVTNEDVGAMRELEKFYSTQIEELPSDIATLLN
Procedure: (§3) FIGS. 1A-1C illustrate the identification of eIF4A as the molecular target of resveratrol. FIG. 1A: Chemical structure of resveratrol. FIG. 1B: Lysate from untreated yeast cells or Hela cell were incubated with resveratrol or vehicle for 1 hr at room temperature, followed by proteolysis, SDS-PAGE, and silver staining. Mass spectrometry identifies the protected protein is eIF4A. FIG. 1C: Western blotting confirms the protection of yeast (TAP-tagged Tifi) eIF4A by resveratrol.
We performed proteolysis on yeast cell lysates that had been incubated with resveratrol or ethanol (vehicle control).

[3] = test system: eukaryotic translation (rabbit reticulocyte lysate system); assay: In vitro translation assay, rabbit reticulocyte lysate system, firefly luciferase mRNA; type: biochemical; settings: 100 μM resveratrol
Procedure: The rabbit reticulocyte lysate system was treated with different concentration of resveratrol (0, 1, 10, 50, 100, 500 μM), and the translation of firefly luciferase mRNA was measured with Promega luciferase assay.
The in vitor translation assay is performed with the rabbit reticulocyte lysate system. We added different concentrations of resveratrol into the in vitor translation reaction, and used the translation of firefly luciferase mRNA as a readout. […] Translation is reduced by >70% at 100 μM resveratrol, the concentration at which we previously detected eIF4A protection in HeLa cell lysate.

[4] = test system: HCV IRES mediated (eIF4A-independent) translation of firefly luciferase; assay: Bicistronic dual-luciferase reporter pcDNA/Ren/HCV/FF in HEK 293 cells, firefly luciferase; type: cell-based; settings: 0-100 μM, 33 hour after transfection
Procedure: as §1, §2

human eIF4A = biological target: T2, human eIF4A (Homo sapiens, UniProt P60842); assay: Proteolysis protection in human HeLa cell lysate by resveratrol (western blotting); type: binding; settings: 100 μM resveratrol
T2 construct: endogenous in cells; host or cells: HeLa cell lysate
Procedure: as §3

T2 sequence (P60842 whole entry): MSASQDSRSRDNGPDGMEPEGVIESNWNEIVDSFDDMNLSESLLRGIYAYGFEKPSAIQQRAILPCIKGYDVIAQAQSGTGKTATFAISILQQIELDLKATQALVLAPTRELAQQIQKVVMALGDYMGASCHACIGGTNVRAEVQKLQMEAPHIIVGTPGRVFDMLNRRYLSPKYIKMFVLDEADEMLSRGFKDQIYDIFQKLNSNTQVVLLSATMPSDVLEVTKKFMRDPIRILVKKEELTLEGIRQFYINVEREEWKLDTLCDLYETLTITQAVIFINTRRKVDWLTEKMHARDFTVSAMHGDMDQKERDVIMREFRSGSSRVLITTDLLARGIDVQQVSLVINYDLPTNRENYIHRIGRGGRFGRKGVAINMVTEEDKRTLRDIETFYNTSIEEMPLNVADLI

Structure (SMILES): Oc1ccc(C=Cc2cc(O)cc(O)c2)cc1 [resveratrol]
- expression of renilla luciferase (cap-dependent) [1]: inhibited in a dose-dependent manner
- eIF4A in protected bands (15 and 25 kDa) after proteolysis, mass spectrometry ([2]; yeast cell lysate incubated with resveratrol vs ethanol vehicle): enriched in the resveratrol-treated sample
- protection of yeast (TAP tagged Tif1) eIF4A, western blotting ([2]; yeast lysate, proteolysis): further confirmed by western blotting
- Translation reduced (firefly luciferase signal) [3]: > 70%
- expression of firefly luciferase (HCV IRES) [4]: unaffected
- protected band after proteolysis, confirmed as human eIF4A by western blotting (human eIF4A): protected band of similar size was detected
